Here are results for 16 molecules from patent publication US20250145665A1, “MACROCYCLIC PEPTIDES USEFUL AS MODULATORS OF TNF ALPHA” (Bristol-Myers Squibb Company, priority 2023, published 2025).

Each structure is given as a SMILES string. Positions of bridges follow the written chain, without caps; N, C: chain ends. Non-standard residues stand in square brackets, D forms with d. Residues, ends and D or L forms follow the SMILES beside them. Bip(4'-COOH) = N[C@@H](Cc1ccc(-c2ccc(C(=O)O)cc2)cc1)C(=O)O; Bip(4'-NHAc) = CC(=O)Nc1ccc(-c2ccc(C[C@H](N)C(=O)O)cc2)cc1; Ala(morpholin-4-yl) = N[C@@H](CN1CCOCC1)C(=O)O; Bip = N[C@@H](Cc1ccc(-c2ccccc2)cc1)C(=O)O; NMeF = CN[C@@H](Cc1ccccc1)C(=O)O; 2Pal = N[C@@H](Cc1ccccn1)C(=O)O; Chg = N[C@H](C(=O)O)C1CCCCC1; Aze = O=C(O)[C@@H]1CCN1; Sar = CNCC(=O)O Where only a bound is given, the exact number is not on record here.

Chain of TNFα (P01375 77-233 limits assumed): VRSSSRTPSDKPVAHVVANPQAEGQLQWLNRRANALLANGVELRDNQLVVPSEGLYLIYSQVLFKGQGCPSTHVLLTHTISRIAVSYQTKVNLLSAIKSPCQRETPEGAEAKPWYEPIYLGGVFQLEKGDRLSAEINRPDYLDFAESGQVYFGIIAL

The assay has as its target TNFα (Homo sapiens, UniProt P01375). Description: TNF-Induced HEK-Blue Assay. In kind it is cell-based. The following applies: HEK-Blue-CD40L cells, NF-kB-driven secreted alkaline phosphatase reporter; TNFα 0.5 ng/ml; 18 h; read-out: TNF induced HEK-Blue assay IC50 value.
As usually defined, the IC50 is the concentration that gives 50% inhibition. For the molecule `CC(=O)Nc1ccc(-c2ccc(C[C@@H]3NC(=O)[C@H](Cc4ccc(-c5ccccc5)cc4)NC(=O)[C@H](CN4CCOCC4)NC(=O)CSC[C@@H](C(=O)NCC(N)=O)NC(=O)[C@H](CC(C)C)NC(=O)[C@H](CCCNC(=N)N)NC(=O)[C@H](C(C)C)NC(=O)[C@@H]4CCCN4C(=O)[C@H](C(C)C)NC(=O)[C@@H](CCCNC(=N)N)NC(=O)[C@H](CC(=O)O)NC(=O)[C@H](Cc4ccccn4)NC(=O)CN(C)C3=O)cc2)cc1` [Example 203] ({CH2CO}-[Ala(morpholin-4-yl)][Bip][Bip(4'-NHAc)][Sar][2Pal]D[dR]VPVRLCG-NH2; thioether N-13), the IC50 is under 50 nM. On to `CC(C)C[C@@H]1NC(=O)[C@H](CCCNC(=N)N)NC(=O)[C@H](C2CCCCC2)NC(=O)[C@@H]2CCCN2C(=O)[C@H](C(C)C)NC(=O)[C@@H](CCCNC(=N)N)NC(=O)[C@H](CC(=O)O)NC(=O)[C@H](Cc2ccccn2)NC(=O)CN(C)C(=O)[C@H](Cc2ccc(-c3ccccc3)cc2)NC(=O)[C@H](Cc2ccc(-c3ccccc3)cc2)NC(=O)[C@H](CN2CCOCC2)NC(=O)CSC[C@@H](C(=O)NCC(N)=O)NC1=O` [Example 204] ({CH2CO}-[Ala(morpholin-4-yl)][Bip][Bip][Sar][2Pal]D[dR]VP[Chg]RLCG-NH2; thioether N-13), for which the IC50 lay in the range of 50 to 200 nM. As to `CC(C)C[C@@H]1NC(=O)[C@H](CCCNC(=N)N)NC(=O)[C@H](C(C)C)NC(=O)[C@@H]2CCCN2C(=O)[C@H](C(C)C)NC(=O)[C@@H](CCCNC(=N)N)NC(=O)[C@H](CC(=O)O)NC(=O)[C@H](Cc2ccccn2)NC(=O)CN(C)C(=O)[C@H](Cc2ccc(-c3ccccc3)cc2)NC(=O)[C@H](Cc2ccc(-c3ccccc3)cc2)NC(=O)[C@H](CN2CCOCC2)NC(=O)CSC[C@@H](C(=O)NCC(N)=O)NC1=O` [Example 205] ({CH2CO}-[Ala(morpholin-4-yl)][Bip][Bip][Sar][2Pal]D[dR]VPVRLCG-NH2; thioether N-13), the IC50 was 50 to 200 nM. In the case of `CC(C)C[C@@H]1NC(=O)[C@H](CCCNC(=N)N)NC(=O)[C@H](C2CCCCC2)NC(=O)[C@@H]2CCCN2C(=O)[C@H](C(C)C)NC(=O)[C@@H](CCCNC(=N)N)NC(=O)[C@H](CC(=O)O)NC(=O)[C@@H]2CCCN2C(=O)CN(C)C(=O)[C@H](Cc2ccc(-c3ccccc3)cc2)NC(=O)[C@H](Cc2ccc(-c3ccccc3)cc2)NC(=O)[C@H](CN2CCOCC2)NC(=O)CSC[C@@H](C(=O)NCC(N)=O)NC1=O` [Example 206] ({CH2CO}-[Ala(morpholin-4-yl)][Bip][Bip][Sar]PD[dR]VP[Chg]RLCG-NH2; thioether N-13), the IC50 is under 50 nM. Turning to `CC(C)C[C@@H]1NC(=O)[C@H](CCCNC(=N)N)NC(=O)[C@H](C2CCCCC2)NC(=O)[C@@H]2CCCN2C(=O)[C@H](C(C)C)NC(=O)[C@H](CCCNC(=N)N)NC(=O)[C@H](CC(=O)O)NC(=O)[C@@H]2CCCN2C(=O)CN(C)C(=O)[C@H](Cc2ccc(-c3ccccc3)cc2)NC(=O)[C@H](Cc2ccc(-c3ccccc3)cc2)NC(=O)[C@H](CN2CCOCC2)NC(=O)CSC[C@@H](C(=O)NCC(N)=O)NC1=O` [Example 207] ({CH2CO}-[Ala(morpholin-4-yl)][Bip][Bip][Sar]PDRVP[Chg]RLCG-NH2; thioether N-13), the IC50 lay in the range of 200 to 2000 nM. For `CC(=O)Nc1ccc(-c2ccc(C[C@@H]3NC(=O)[C@H](Cc4ccc(-c5ccccc5)cc4)NC(=O)[C@H](CN4CCOCC4)NC(=O)CSC[C@@H](C(=O)NCC(N)=O)NC(=O)[C@H](CC(C)C)NC(=O)[C@H](Cc4ccc(O)cc4)NC(=O)[C@H](C(C)C)NC(=O)[C@@H]4CCCN4C(=O)[C@H](C(C)C)NC(=O)[C@H](CCCNC(=N)N)NC(=O)[C@H](CC(=O)O)NC(=O)[C@H](Cc4ccccn4)NC(=O)CN(C)C3=O)cc2)cc1` [Example 208] ({CH2CO}-[Ala(morpholin-4-yl)][Bip][Bip(4'-NHAc)][Sar][2Pal]DRVPVYLCG-NH2; thioether N-13) the value was 50 to 200 nM; for `CC(C)C[C@@H]1NC(=O)[C@H](Cc2ccc(O)cc2)NC(=O)[C@H](C2CCCCC2)NC(=O)[C@@H]2CCCN2C(=O)[C@H](C(C)C)NC(=O)[C@@H](CCCNC(=N)N)NC(=O)[C@H](CC(=O)O)NC(=O)[C@@H]2CCCN2C(=O)CN(C)C(=O)[C@H](Cc2ccc(-c3ccccc3)cc2)NC(=O)[C@H](Cc2ccc(-c3ccccc3)cc2)NC(=O)[C@H](CN2CCOCC2)NC(=O)CSC[C@@H](C(=O)NCC(N)=O)NC1=O` [Example 209] ({CH2CO}-[Ala(morpholin-4-yl)][Bip][Bip][Sar]PD[dR]VP[Chg]YLCG-NH2; thioether N-13), 200 to 2000 nM. For `CC(=O)Nc1ccc(-c2ccc(C[C@@H]3NC(=O)[C@H](Cc4ccc(-c5ccccc5)cc4)NC(=O)[C@H](CN4CCOCC4)NC(=O)CSC[C@@H](C(=O)NCC(N)=O)NC(=O)[C@H](CC(C)C)NC(=O)[C@H](Cc4ccc(O)cc4)NC(=O)[C@H](C4CCCCC4)NC(=O)[C@@H]4CCCN4C(=O)[C@H](C(C)C)NC(=O)[C@H](CCCNC(=N)N)NC(=O)[C@H](CC(=O)O)NC(=O)[C@@H]4CCCN4C(=O)CN(C)C3=O)cc2)cc1` [Example 210] ({CH2CO}-[Ala(morpholin-4-yl)][Bip][Bip(4'-NHAc)][Sar]PDRVP[Chg]YLCG-NH2; thioether N-13) the value was under 50 nM; for `CC(=O)Nc1ccc(-c2ccc(C[C@@H]3NC(=O)[C@H](Cc4ccc(-c5ccccc5)cc4)NC(=O)[C@H](CN4CCOCC4)NC(=O)CSC[C@@H](C(=O)NCC(N)=O)NC(=O)[C@H](CC(C)C)NC(=O)[C@H](Cc4cnc[nH]4)NC(=O)[C@H](C(C)C)NC(=O)[C@@H]4CCCN4C(=O)[C@H](C(C)C)NC(=O)[C@@H](CCCNC(=N)N)NC(=O)[C@H](CC(=O)O)NC(=O)[C@H](Cc4cnc[nH]4)NC(=O)CN(C)C3=O)cc2)cc1` [Example 211] ({CH2CO}-[Ala(morpholin-4-yl)][Bip][Bip(4'-NHAc)][Sar]HD[dR]VPVHLCG-NH2; thioether N-13), 200 to 2000 nM; for `CC(=O)Nc1ccc(-c2ccc(C[C@@H]3NC(=O)[C@H](Cc4ccc(-c5ccccc5)cc4)NC(=O)[C@H](CN4CCOCC4)NC(=O)CSC[C@@H](C(=O)NCC(N)=O)NC(=O)[C@H](CC(C)C)NC(=O)[C@H](CCCNC(=N)N)NC(=O)[C@H](C(C)C)NC(=O)[C@@H]4CCCN4C(=O)[C@H](C(C)C)NC(=O)[C@@H](CCCNC(=N)N)NC(=O)[C@H](CC(=O)O)NC(=O)[C@H](Cc4cnc[nH]4)NC(=O)CN(C)C3=O)cc2)cc1` [Example 212] ({CH2CO}-[Ala(morpholin-4-yl)][Bip][Bip(4'-NHAc)][Sar]HD[dR]VPVRLCG-NH2; thioether N-13), under 50 nM. The same measure for `CC(=O)Nc1ccc(-c2ccc(C[C@@H]3NC(=O)[C@H](Cc4ccc(-c5ccccc5)cc4)NC(=O)[C@H](CN4CCOCC4)NC(=O)CSC[C@@H](C(=O)NCC(N)=O)NC(=O)[C@H](CC(C)C)NC(=O)[C@H](Cc4cnc[nH]4)NC(=O)[C@H](C(C)C)NC(=O)[C@@H]4CCCN4C(=O)[C@H](C(C)C)NC(=O)[C@@H](CCCNC(=N)N)NC(=O)[C@H](CC(=O)O)NC(=O)[C@H](Cc4ccc(O)cc4)NC(=O)CN(C)C3=O)cc2)cc1` [Example 213] ({CH2CO}-[Ala(morpholin-4-yl)][Bip][Bip(4'-NHAc)][Sar]YD[dR]VPVHLCG-NH2; thioether N-13): under 50 nM.

Take `CC(C)C[C@@H]1NC(=O)[C@H](Cc2ccccc2)NC(=O)[C@H](C(C)C)NC(=O)[C@@H]2CCCN2C(=O)[C@H](C(C)C)NC(=O)[C@@H](CCCNC(=N)N)NC(=O)[C@H](CC(=O)O)NC(=O)[C@H](Cc2ccccc2)NC(=O)CN(C)C(=O)[C@H](Cc2ccc(-c3ccccc3)cc2)NC(=O)[C@H](Cc2ccc(-c3ccc(C(=O)O)cc3)cc2)NC(=O)[C@H](CN2CCOCC2)NC(=O)CSC[C@@H](C(=O)NCC(N)=O)NC1=O` [Example 216] ({CH2CO}-[Ala(morpholin-4-yl)][Bip(4'-COOH)][Bip][Sar]FD[dR]VPVFLCG-NH2; thioether N-13): the IC50 lay within 200 to 2000 nM. As to `CC(=O)Nc1ccc(-c2ccc(C[C@@H]3NC(=O)[C@H](Cc4ccc(-c5ccccc5)cc4)NC(=O)[C@H](CN4CCOCC4)NC(=O)CSC[C@@H](C(=O)NCC(N)=O)NC(=O)[C@H](CC(C)C)NC(=O)[C@H](Cc4ccccc4)NC(=O)[C@H](C(C)C)NC(=O)[C@@H]4CCN4C(=O)[C@H](C(C)C)NC(=O)[C@@H](CCCNC(=N)N)NC(=O)[C@H](CC(=O)O)NC(=O)[C@H](Cc4ccccc4)NC(=O)CN(C)C3=O)cc2)cc1` [Example 217] ({CH2CO}-[Ala(morpholin-4-yl)][Bip][Bip(4'-NHAc)][Sar]FD[dR]V[Aze]VFLCG-NH2; thioether N-13), the IC50 lay in the range of 50 to 200 nM. For `CC(=O)Nc1ccc(-c2ccc(C[C@@H]3NC(=O)[C@H](Cc4ccc(-c5ccccc5)cc4)NC(=O)[C@H](CN4CCOCC4)NC(=O)CSC[C@@H](C(=O)NCC(N)=O)NC(=O)[C@H](CC(C)C)NC(=O)[C@H](CCCNC(=N)N)NC(=O)[C@H](C4CCCCC4)NC(=O)[C@@H]4CCCN4C(=O)[C@H](CC(N)=O)NC(=O)[C@@H](CCCNC(=N)N)NC(=O)[C@H](CC(=O)O)NC(=O)[C@H](Cc4ccccn4)NC(=O)CN(C)C3=O)cc2)cc1` [Example 218] ({CH2CO}-[Ala(morpholin-4-yl)][Bip][Bip(4'-NHAc)][Sar][2Pal]D[dR]NP[Chg]RLCG-NH2; thioether N-13), the IC50 lay in the range of 50 to 200 nM.

For `CC(C)C[C@@H]1NC(=O)[C@H](Cc2ccccc2)N(C)C(=O)[C@H](C(C)C)NC(=O)[C@@H]2CCCN2C(=O)[C@H](C(C)C)NC(=O)[C@@H](CCCNC(=N)N)NC(=O)[C@H](CC(=O)O)NC(=O)[C@H](Cc2ccc(O)cc2)NC(=O)CN(C)C(=O)[C@H](Cc2ccc(-c3ccccc3)cc2)NC(=O)[C@H](Cc2ccc(-c3ccc(C(=O)O)cc3)cc2)NC(=O)[C@H](CN2CCOCC2)NC(=O)CSC[C@@H](C(=O)NCC(N)=O)NC1=O` [Example 220] ({CH2CO}-[Ala(morpholin-4-yl)][Bip(4'-COOH)][Bip][Sar]YD[dR]VPV[NMeF]LCG-NH2; thioether N-13), the IC50 is under 50 nM. Turning to `CC(=O)Nc1ccc(-c2ccc(C[C@@H]3NC(=O)[C@H](Cc4ccc(-c5ccccc5)cc4)NC(=O)[C@H](CN4CCOCC4)NC(=O)CSC[C@@H](C(=O)NCC(N)=O)NC(=O)[C@H](CC(C)C)NC(=O)[C@H](Cc4ccc(O)cc4)NC(=O)[C@H](C(C)C)NC(=O)[C@@H]4CCN4C(=O)[C@H](C(C)C)NC(=O)[C@@H](CCCNC(=N)N)NC(=O)[C@H](CC(=O)O)NC(=O)[C@H](Cc4ccccc4)NC(=O)CN(C)C3=O)cc2)cc1` [Example 221] ({CH2CO}-[Ala(morpholin-4-yl)][Bip][Bip(4'-NHAc)][Sar]FD[dR]V[Aze]VYLCG-NH2; thioether N-13), the IC50 is under 50 nM.
